Experimental data from publication PMC10096064, “Naphth[1,2-d]imidazoles Bioactive from β-Lapachone: Fluorescent Probes and Cytotoxic Agents to Cancer Cells” (Molecules, 2023).
Entries after “also recorded” stand apart in the source; their conditions may differ. Where two headings read alike, the source gives them in different places. Marks after values point to notes of the source that are not given here.

How the values were obtained:
[1] = cited from earlier work
[2] = Fluorescence emission spectrum and Stokes shift; format: physicochemical; settings: for fluorescence emission intensity / λemis (emission wavelength): excitation at 345 nm, 20 μM; for λemis (emission wavelength): solvent per compound: IM1, IM3, IM4, IM5 CH2Cl2, IM2 DMSO, IM6 CH3OH, IM7 hexane, DAPI H2O; for ΔST (Stokes shift): difference between absorption and emission wavelengths, solvent per compound as in Table 1
Protocol: The stock solutions were diluted to a concentration of 20 µM, and readings used the excitation wavelength of 345 nm for all compounds. […]

L929 = assay: MTT cytotoxicity assay, nontumor murine fibroblast L929; format: cell-based; settings: Mus musculus, 72 h exposure
Protocol: (§1) The cytotoxic activity of the naphth[1,2-d]imidazoles IM1–IM7 was assessed through colorimetric MTT assay. The ability of these compounds to inhibit cell growth against human glioblastoma (SNB-19), human colorectal carcinoma (HCT-116), and human promyelocytic leukemia (HL-60) cell lines was evaluated. The IC50 was determined for those compounds, returning a percentage inhibition of cell growth above 75% in at least two tested cell lines. […] Doxorubicin was used as the positive control, and cytotoxic activities were expressed as IC50 for all the naphth[1,2-d]imidazoles in Table 2.
(§2) Brain tumor (SNB-19), human colorectal carcinoma (HCT-116), and human promyelocytic leukemia (HL-60) cells were obtained from the National Cancer Institute (NCI) (Bethesda, MD, USA). The L929 cells (mouse fibroblast L cells NCTC clone 929) were purchased from the American Type Culture Collection (Manassas, VA, USA). The cells were grown on RPMI 1640 medium supplemented with 10% fetal bovine serum and 1% antibiotics (penicillin/streptomycin) at 37 °C with 5% CO2.
(§3) Cytotoxic potential of the naphth[1,2-d]imidazoles IM1–IM7 was assessed after 72 h of exposure to the tumor cell lines of human SNB-19, HCT-116, HL-60, and normal cell line L929. Cells were plated in 96-well plates (0.7 × 10^5 cells/well for SNB-19, 0.3 × 10^6 cells/well for HCT-116, and 0.3 × 10^6 cells/well for HL-60). Compounds were dissolved with DMSO at concentrations in the 0.078–10 μg.mL^−1 range. Doxorubicin (0.001–1.10 μM) was used as the positive control, and negative control groups received the same amount of vehicle (DMSO). The cell viability was determined by the reduction of the yellow dye 3-(4,5-dimethyl-2-thiazol)-2,5-diphenyl-2H-tetrazolium bromide (MTT) to a blue formazan product. At the end of the incubation time (69 h), the plates were centrifuged, and the medium was replaced with fresh medium (200 μL) containing 0.5 mg/mL of MTT. Three hours later, the MTT formazan product was dissolved in DMSO (150 μL), and the absorbance was measured using a multi-plate reader (Spectra Count, Packard, ON, Canada). The drug effect was quantified as the percentage of control absorbance of the reduced dye at 550 nm. All experiments were performed in three independent assays, and the half maximal inhibitory concentration (IC50) and their 95% confidence intervals were achieved by nonlinear regression.

HCT-116 = assay: MTT cytotoxicity assay, human colorectal carcinoma HCT-116; format: cell-based; settings: for IC50: Homo sapiens, HCT-116, 72 h exposure, MTT, 95% confidence interval in brackets; for SI HCT-116 (selectivity index): ratio IC50 L929 / IC50 HCT-116
Protocol: as §1, §2, §3

HL-60 = assay: MTT cytotoxicity assay, human promyelocytic leukemia HL-60; format: cell-based; settings: for IC50: Homo sapiens, HL-60, 72 h exposure, MTT, 95% confidence interval in brackets; for SI HL-60 (selectivity index): ratio IC50 L929 / IC50 HL-60
Protocol: as §1, §2, §3

SNB-19 = assay: MTT cytotoxicity assay, human glioblastoma SNB-19; format: cell-based; settings: for IC50: Homo sapiens, SNB-19, 72 h exposure, MTT, 95% confidence interval in brackets; for SI SNB-19 (selectivity index): ratio IC50 L929 / IC50 SNB-19
Protocol: as §1, §2, §3

[3] = UV-vis absorption spectra and molar absorptivity coefficient; format: physicochemical; settings: 20 μM
Protocol: A stock solution in dichloromethane (CH2Cl2) of each compound was prepared at a concentration of 4000 µM. From the stock solution, solutions were prepared at a concentration of 20 µM of each compound in four different solvents: hexane, CH2Cl2, dimethyl sulfoxide (DMSO), and methanol (CH3OH). Then, measurement in the range of 190 to 800 nm was performed, with the wavelengths of maximum absorption (λmax) of the compounds in the different solvents shown in Table S1 and Figure S8.
The molar absorptivity coefficient (εAbs) was determined using an equation applied by Lambert–Beer (εAbs = A/LxC, where A—maximum absorbance; L—the optical path of the cuvette used (1 cm); and C—concentration of the analyzed sample in M).

[4] = design: method as in PMID 25995830, PMID 20460521; settings: drawback limiting clinical applications; cited from earlier work
[5] = solvent per compound: IM1, IM3, IM4, IM5 CH2Cl2, IM2 DMSO, IM6 CH3OH, IM7 hexane

SMILES | fluorescence emission intensity [2] | λemis (emission wavelength) [2] | melting point | εAbs (molar absorptivity coefficient) [3, 5] | λmax [3, 5] | ΔST (Stokes shift) [2] | εAbs (molar absorptivity coefficient) [3] | λmax ([1]; H2O, ref Farahat et al. (2017) [32]) | λabs ([1]; general characteristic of DAPI stated in text, ref not given) | IC50 (L929) | IC50 (HCT-116) | SI HCT-116 (selectivity index) (HCT-116) | IC50 (HL-60) | SI HL-60 (selectivity index) (HL-60) | IC50 (SNB-19) | SI SNB-19 (selectivity index) (SNB-19) | cell growth inhibition / cytotoxicity (in words) (HCT-116; HCT-116, MTT, IC50 not calculated) | cell growth inhibition / cytotoxicity (in words) (HL-60; HL-60, MTT, IC50 not calculated) | cell growth inhibition / cytotoxicity (in words) (SNB-19; SNB-19, MTT, IC50 not calculated) | water solubility [4]
N=C(N)c1ccc(-c2cc3ccc(C(=N)N)cc3[nH]2)cc1 [DAPI, 4′,6-diamidino-2-phenylindole, reference compound] | 1.13 × 10^5 au | 452 nm | – | – | – | – | – | 343 ^d nm | 340 nm | – | – | – | – | – | – | – | – | – | – | –
COc1cccc2c1C(=O)c1c(O)c3c(c(O)c1C2=O)C[C@@](O)(C(=O)CO)C[C@@H]3O[C@H]1C[C@H](N)[C@H](O)[C@H](C)O1 [Doxorubicin, reference compound] | – | – | – | – | – | – | – | – | – | 3.16 µM | 0.2 µM | 15.80 | 0.04 µM | 79.00 | 2.21 µM | 1.43 | – | – | – | –
CC1(C)CCC2=C(O1)c1ccccc1C(=O)C2=O [β-lapachone, β-Lapachone] | – | – | – | – | – | – | – | – | – | – | – | – | – | – | – | – | – | – | – | low

The next lines start with results.

fluorescence emission intensity [2] | λemis (emission wavelength) [2] | melting point | εAbs (molar absorptivity coefficient) [3, 5] | λmax [3, 5] | ΔST (Stokes shift) [2] | εAbs (molar absorptivity coefficient) [3] | SMILES | λmax ([1]; H2O, ref Farahat et al. (2017) [32]) | λabs ([1]; general characteristic of DAPI stated in text, ref not given) | IC50 (L929) | IC50 (HCT-116) | SI HCT-116 (selectivity index) (HCT-116) | IC50 (HL-60) | SI HL-60 (selectivity index) (HL-60) | IC50 (SNB-19) | SI SNB-19 (selectivity index) (SNB-19) | cell growth inhibition / cytotoxicity (in words) (HCT-116; HCT-116, MTT, IC50 not calculated) | cell growth inhibition / cytotoxicity (in words) (HL-60; HL-60, MTT, IC50 not calculated) | cell growth inhibition / cytotoxicity (in words) (SNB-19; SNB-19, MTT, IC50 not calculated) | water solubility [4]
6.90 × 10^4 au | 366 nm | 255 to 259 °C | 0.61 10^4 M^−1cm^−1 | 316 nm | 50 nm | – | CC1(C)CCc2c(c3ccccc3c3nc[nH]c23)O1 [IM1, 4,5-dihydro-6,6-dimethyl-6H-2-pyran[b-4,3]naphth[1,2-d]imidazole] | – | – | 186 µM | 62.1 µM | 3.00 | 24.2 µM | 7.68 | 46.4 µM | 4.00 | – | – | – | –
2.49 × 10^6 au | 402 nm | 278 to 279 °C | 2.43 10^4 M^−1cm^−1 | 342 nm | 60 nm | 24300 M⁻¹ cm⁻¹ | CC1(C)CCc2c(c3ccccc3c3nc(-c4ccccc4)[nH]c23)O1 [IM2, 4,5-dihydro-6,6-dimethyl-6H-2-(phenyl)-pyran[b-4,3]naphth[1,2-d]imidazole] | – | – | 105 µM | 21.7 µM | 4.83 | 29.9 µM | 3.50 | 27 µM | 3.89 | – | – | – | –
1.41 × 10^6 au | 457 nm | – | 1.57 10^4 M^−1cm^−1 | 354 nm | 103 nm | 15700 M⁻¹ cm⁻¹ | CC1(C)CCc2c(c3ccccc3c3nc(-c4cccc5ccccc45)[nH]c23)O1 [IM3, 4,5-dihydro-6,6-dimethyl-6H-2-(naphthalenyl)-pyran[b-4,3]naphth[1,2-d]imidazole] | – | – | – | – | – | – | – | – | – | low growth inhibition; also recorded: low cytotoxicity | low growth inhibition; also recorded: low cytotoxicity | low growth inhibition; also recorded: low cytotoxicity | –
1.36 × 10^6 au | 393 nm | – | 1.48 10^4 M^−1cm^−1 | 344 nm | 49 nm | 14800 M⁻¹ cm⁻¹ | CC1(C)CCc2c(c3ccccc3c3nc(-c4ccc(O)cc4)[nH]c23)O1 [IM4, 4,5-dihydro-6,6-dimethyl-6H-2-(4-hidroxyphenyl)-pyran[b-4,3]naphth[1,2-d]imidazole] | – | – | > 363 µM | 23 µM | >15.76 | 8.71 µM | >41.70 | 31.9 µM | >11.38 | – | – | – | –
7.04 × 10^5 au | 422 nm | 182 to 184 °C | 2.71 10^4 M^−1cm^−1 | 368 nm | 54 nm | 27100 M⁻¹ cm⁻¹ | CN(C)c1ccc(-c2nc3c([nH]2)c2c(c4ccccc43)OC(C)(C)CC2)cc1 [IM5, 4,5-dihydro-6,6-dimethyl-6H-2-(4-dimethylaminophenyl)-pyran[b-4,3]naphth[1,2-d]imidazole] | – | – | 52.8 µM | 44.1 µM | 1.20 | 12.3 µM | 4.28 | 21.1 µM | 2.51 | – | – | – | –
– | 391 nm | 259 to 260 °C | 1.85 10^4 M^−1cm^−1 | 411 nm | – | – | CC1(C)CCc2c(c3ccccc3c3nc(-c4ccc([N+](=O)[O-])cc4)[nH]c23)O1 [IM6, 4,5-dihydro-6,6-dimethyl-6H-2-(4-nitrophenyl)-pyran[b-4,3]naphth[1,2-d]imidazole] | – | – | 152 µM | 21.1 µM | 7.18 | 13.7 µM | 11.09 | 22.3 µM | 6.81 | – | – | – | –
– | 385 nm | 139 to 141 °C | 1.35 10^4 M^−1cm^−1 | 337 nm | 48 nm | – | CC1(C)CCc2c(c3ccccc3c3nc(-c4ccccc4[N+](=O)[O-])[nH]c23)O1 [IM7, 4,5-dihydro-6,6-dimethyl-6H-2-(2-nitrophenyl)-pyran[b-4,3]naphth[1,2-d]imidazole] | – | – | – | 35.1 µM | – | 14.9 µM | – | > 67 µM | – | – | – | – | –
